{"source": "patent US20030170249A1", "about": "“Vaccines directed to cancer-associated carbohydrate antigens” (priority 1999, published 2003)", "key": {"[1]": {"tested_on": "TA3Ha cells", "experiment": "Tumor growth suppression by vaccination with Tn antigen (A-OSM or A-BSM), Ribi adjuvant and cyclophosphamide", "assay_type": "in vivo, mouse", "conditions": "CP only; 700 TA3Ha cells i.p.", "experimental": "Tumor growth suppression was tested using A-OSM or A-BSM with Ribi adjuvant, which is essentially composed of trehalose dimycolate and monophosphoryl Lipid A, the effective component of mycobacteria known to stimulate immune response of T as well as B cells (Ribi et al., Clin. Immunol. Newsletter 6:33-36, 1985). A-OSM and A-BSM were produced by treatment with neuraminidase as described above. […] For example, 100 μg of A-OSM or A-BSM were mixed with 500 μg of complete Ribi adjuvant and injected subcutaneously at day −7 (i.e., 7 days before tumor cell inoculation). On day 0, 700 TA3Ha cells were injected intraperitoneally. On day 1, CP (75 mg/kg) was injected intraperitoneally. On days 2, 5, 12, and 19, 100 μg antigen/500 μg Ribi adjuvant complex was injected subcutaneously. Another experimental group was injected with CP-Ribi on days 2, 5, 12, and 19, respectively."}, "[2]": {"tested_on": "TA3Ha cells", "experiment": "Synthetic Tn-KLH/Ribi tumor vaccine, TA3Ha challenge i.p.", "assay_type": "in vivo, mouse", "conditions": "control groups; TA3Ha i.p. day 0, CP day 1", "protocol": "Mice were preimmunized at day −7 with 50 μg of synthetic Tn/Ribi, s.c. and were challenged with TA3Ha cells, i.p. at day 0.\nMice were immunized with 30 μg of monomeric Tn-KLH/Ribi or dimeric Tn-KLH/Ribi on days −7, 2, 5, 12 and 19."}, "[3]": {"tested_on": "MHC Class I Kb / Db", "conditions": "peptides binding MHC Class I Kb; cited from earlier work"}, "[4]": {"tested_on": "B16 melanoma cells of clones F-1 or F-10", "experiment": "Active immunization with GM3 lactone, B16 melanoma development", "assay_type": "in vivo", "conditions": "immunized BALB/c mice", "experimental": "Ten BALB/c mice were immunized with native GM3 or GM3 lactone coated on acid-treated Salmonella minnesota. Immunization was carried out by intravenous injection of 200 μl of the GM3 or GM3 lactone preparation once per week for 4 weeks. Subsequently, 1.0×10^5 B16 melanoma cells of clones F-1 or F-10, were subcutaneously injected into the back of the mice and tumor growth was observed after 20 days. As controls, other glycolipids, such as paragloboside coated on acid-treated Salmonella minnesota, and Salmonella minnesota alone, were used in the same amounts as discussed above.\nIn the table, the numbers indicate the number of animal which died over the total number of animals immunized."}, "[5]": {"tested_on": "V alpha 14 NKT cells", "conditions": "cited from earlier work"}, "[6]": {"tested_on": "V alpha 14 TCR", "conditions": "cited from earlier work"}, "[7]": {"tested_on": "B16 melanoma and mouse colonic carcinoma Colon 26", "conditions": "mice bearing various tumors; cited from earlier work"}, "[8]": {"conditions": "cited from earlier work"}, "[9]": {"tested_on": "antibody to Le^y", "conditions": "cited from earlier work"}}, "note": "Read-outs that look alike come from different tables or passages of the source. Where no end group is shown, it is not given here.", "data": [{"molecule": "O=P1(N(CCCl)CCCl)NCCCO1", "note": "(stereo not shown) [CP, Cyclophosphamide]", "values": [{"measurement": "most animals had died by", "setting": "[1]", "value": "20 to 30", "unit": "days"}, {"measurement": "tumor growth suppression", "setting": "[1]", "value": "some tumor growth suppression"}, {"measurement": "survival of tumor challenge", "setting": "[2]", "value": "did not survive tumor challenge"}]}, {"molecule": "Di-Gal (Galα1-4Gal) oligosaccharide linked to V or Q of RGYVYQGL: di-Gal linked to MHC Class I Kb binding peptide RGYVYQGL (also: di-Gal (Galα1-4Gal) linked to V or Q)", "values": [{"measurement": "cytotoxic T cell response to the oligosaccharide residue", "setting": "[3]", "value": "elicited a cytotoxic T cell response"}]}, {"molecule": "GM3", "values": [{"measurement": "tumor growth reduced", "setting": "[4]", "value": "not"}]}, {"molecule": "Di-Gal (Galα1-4Gal) oligosaccharide linked to N or P of FAPGNYPAL: di-Gal linked to MHC Class I Kb binding peptide FAPGNYPAL (also: di-Gal (Galα1-4Gal) linked to N or P)", "values": [{"measurement": "cytotoxic T cell response to the oligosaccharide residue", "setting": "[3]", "value": "elicited a cytotoxic T cell response"}]}, {"molecule": "CCCCCCCCCCCCCCCCCCCCCCCCCC(=O)N[C@@H](CO[C@H]1O[C@H](CO)[C@H](O)[C@H](O)[C@H]1O)[C@H](O)[C@H](O)CCCCCCCCCCCCCC", "note": "[alpha-GalCer]", "values": [{"measurement": "proliferation of V alpha 14 NKT cells", "setting": "[5]", "value": "stimulate proliferation"}, {"measurement": "binding to V alpha 14 TCR", "setting": "[6]", "value": "bind V alpha 14 TCR"}, {"measurement": "tumor growth and metastasis", "setting": "[7]", "value": "abrogated tumor growth and metastasis"}]}, {"molecule": "GM3 lactone", "values": [{"measurement": "tumor growth reduced", "setting": "[4]", "value": "reduced"}, {"measurement": "stability of the structure", "setting": "[8]; acidic to neutral pH", "value": "relatively stable"}, {"measurement": "stability of the structure", "setting": "[8]; alkaline pH", "value": "unstable"}]}, {"molecule": "APWLYGPA [peptide selected from phage display library with antibody to Le^y]", "values": [{"measurement": "binding of the antibody to Le^y", "setting": "[9]", "value": "inhibited binding"}]}]}
